Like-named read-outs stand apart in the source and are kept apart here. Non-standard residues stand in square brackets, D forms with d. Residues, ends and D or L forms follow the SMILES beside them. *: point of attachment. Hexanoyl = CCCCCC(=O)*; Butyryl = CCCC(=O)*
How the values were obtained:
S. aureus (ATCC 29213) = test: MIC determination, broth microdilution; type: cell-based, Staphylococcus aureus; conditions: S. aureus ATCC 29213, MHB-II, 37 °C, 18–24 h, triplicate
Protocol: (§1) The following bacteria were grown in cation-adjusted Muller-Hinton broth at 37 °C with shaking: A. baumannii (ATCC 19606), E. coli (ATCC 25922), K. pneumoniae (ATCC 13883), P. aeruginosa (ATCC 27853), and S. aureus (ATCC 29213).
(§2) The MIC experiments were performed in triplicate, as described in Jensen et al.. Briefly, all peptide stock solutions were prepared by dissolving each peptide in Milli-Q water to obtain a concentration of 10 mg/mL. A bacterial concentration of 10^6 CFU/mL was obtained through the dilution of an overnight culture (MHB-II medium). When the overnight culture was prepared, the OD was measured using a spectrophotometer and when an OD value between 0.2 and 0.4 was obtained, the culture was diluted to OD = 0.002. The MIC determination was carried out in 96-well polypropylene microtitre plates. […] A final bacterial inoculum of 5 × 10^5 CFU/mL per well was obtained by adding 50 μL bacterial suspension to the microtiter plates. The plates were incubated at 37 °C for 18–24 h. To verify the CFU, 10 μL of bacteria suspension was transferred to 990 μL 0.9 % saline solution, from which a 10-fold dilution was carried out. Then, 100 μL of the dilution was plated on an LB plate and left for bacterial growth overnight at 37 °C. Colistin and vancomycin were used as the positive controls.

E. coli (ATCC 25922) = type: cell-based, Escherichia coli; conditions: E. coli ATCC 25922, MHB-II, 37 °C, 18–24 h, triplicate
Protocol: as §1, §2

[1] = system: K. pneumoniae (ATCC 13883); type: cell-based, Klebsiella pneumoniae; conditions: K. pneumoniae ATCC 13883, MHB-II, 37 °C, 18–24 h, triplicate
Protocol: as §1, §2

[2] = system: A. baumannii (ATCC 19606); type: cell-based, Acinetobacter baumannii; conditions: A. baumannii ATCC 19606, MHB-II, 37 °C, 18–24 h, triplicate
Protocol: as §1, §2

[3] = system: P. aeruginosa (ATCC 27853); type: cell-based, Pseudomonas aeruginosa; conditions: P. aeruginosa ATCC 27853, MHB-II, 37 °C, 18–24 h, triplicate
Protocol: as §1, §2

human erythrocytes = conditions: 150 μM peptide; 0.5% (v/v) red blood cell suspension in PBS, 1 h at 37 °C, absorbance 414 nm; melittin positive control, PBS negative control; three wells
Protocol: PBS served as the negative control and 5 μM melittin served as the positive control. All melittin solutions were prepared in Protein LoBind Eppendorf tubes to prevent the adsorption of melittin to the inner surface of the tubes.
Preparation of peptide solutions and melittin: A 5 μM melittin solution in PBS was prepared the day before the hemolysis experiment. First, 150 μL of this solution was transferred to each of the positive control wells and stored in the fume hood to coat the wells. On the day of the experiment, the melittin solution was discarded and the wells were washed with 3 × PBS. A 2.5 μM melittin solution in PBS was prepared and 75 μL was transferred to the wells. PBS (150 μL) was used as the negative control. A solution of each peptide was prepared by dissolving the peptide in 0.5 mL PBS to obtain a concentration of 300 μM. Each peptide solution (150 μL) was transferred to the wells in three wells each in row A, and the plate was diluted down.
Preparation of the red blood cell suspension: 1 mL of type O- whole blood in citrate was transferred to a cryotube. The whole blood was washed with 3 × PBS; adding 3, 3, and 4 mL of PBS, respectively. In between, the blood was centrifuged for 8 min (3000, 3000, and 4000 rpm, respectively) and the supernatant was removed after each centrifugation. A 0.5% (v/v) blood suspension was prepared by adding 40 μL of the washed blood cells to 8 mL of PBS. Then, 75 μL of the red blood cell suspension was transferred to each well and mixed gently. The plate was sealed and incubated for 1 h at 37 °C. After incubation, the plate was centrifuged at 4000 rpm for 10 min. Afterwards, 60 μL of the supernatant from each well was quickly transferred to an ELISA plate.
The absorbance was determined at 414 nm, and Equation (1) below was used to calculate the hemolytic activity of the peptides.

[4] = Hydrophobicity by analytical RP-HPLC (%B at elution); type: physicochemical; conditions: chromatographic, analytical reversed-phase HPLC, Waters Symmetry C18 5 μm 4.6 × 250 mm; A: H2O + 0.1% TFA, B: 90:10 ACN-H2O + 0.1% TFA
Protocol: Peptide purity was determined as described previously by analytical RP-HPLC using a Waters 717 plus Autosampler, In-line Degasser AF, 600 Controller, and 2996 Photodiode Array Detector; the column used was a Waters Symmetry C18 column (5 μm, 4.6 mm × 250 mm, Milford, MA, USA). An aqueous acetonitrile (ACN) gradient with 0.1% TFA added (mixing eluent A: H2O + 0.1% TFA and eluent B: 90:10 ACN-H2O + 0.1% TFA) was employed using milli-Q water. Preparative RP-HPLC was performed by using a Waters XSelect Peptide CSH C18 OBDTM column (5 μm, 19 mm × 250 mm, Milford, MA, USA) with the same eluents as for analytical HPLC.
*Hydrophobicity as indicated by the percentage of mobile phase B (%B) at the peak elution time on analytical

SMILES: CCCC(=O)N[C@H](CCCCN)C(=O)N[C@H](CCCCN)C(=O)N[C@H](CC(C)C)C(=O)N[C@H](Cc1ccccc1)C(=O)N[C@H](CCCCN)C(=O)N[C@H](CCCCN)C(=O)N[C@@H](C(=O)N[C@H](CC(C)C)C(=O)N[C@H](CCCNC(=N)N)C(=O)N[C@H](Cc1ccc(O)cc1)C(=O)N[C@H](CC(C)C)C(N)=O)[C@H](C)CC [compound 1] (Butyryl-[dK][dK][dL][dF][dK][dK][dI][dL][dR][dY][dL]-NH2)
- MIC SA (S. aureus (ATCC 29213); inoculum 5 × 10^5 CFU/mL): 64 µg/mL
- MIC SA (S. aureus (ATCC 29213); value in brackets): 42.1 µM
- MIC EC (E. coli (ATCC 25922); inoculum 5 × 10^5 CFU/mL): 2 µg/mL
- MIC EC (E. coli (ATCC 25922); value in brackets): 1.3 µM
- MIC KP ([1]; inoculum 5 × 10^5 CFU/mL): 4 µg/mL
- MIC KP ([1]; value in brackets): 2.6 µM
- MIC AB ([2]; inoculum 5 × 10^5 CFU/mL): 2 µg/mL
- MIC AB ([2]; value in brackets): 1.3 µM
- MIC PA ([3]; inoculum 5 × 10^5 CFU/mL): 32 µg/mL
- MIC PA ([3]; value in brackets): 21.1 µM
- % hemolysis of human erythrocytes (human erythrocytes): 100%

SMILES: CCCCCC(=O)N[C@H](CCCCN)C(=O)N[C@H](CCCCN)C(=O)N[C@H](CC(C)C)C(=O)N[C@H](Cc1ccccc1)C(=O)N[C@H](CCCCN)C(=O)N[C@H](CCCCN)C(=O)N[C@@H](C(=O)N[C@H](CC(C)C)C(=O)N[C@H](CCCNC(=N)N)C(=O)N[C@H](Cc1ccc(O)cc1)C(=O)N[C@H](CC(C)C)C(N)=O)[C@H](C)CC [compound 2] (Hexanoyl-[dK][dK][dL][dF][dK][dK][dI][dL][dR][dY][dL]-NH2)
- MIC SA (S. aureus (ATCC 29213); inoculum 5 × 10^5 CFU/mL): 64 µg/mL
- MIC SA (S. aureus (ATCC 29213); value in brackets): 41.4 µM
- MIC EC (E. coli (ATCC 25922); inoculum 5 × 10^5 CFU/mL): 8 µg/mL
- MIC EC (E. coli (ATCC 25922); value in brackets): 5.2 µM
- MIC KP ([1]; inoculum 5 × 10^5 CFU/mL): 8 µg/mL
- MIC KP ([1]; value in brackets): 5.2 µM
- MIC AB ([2]; inoculum 5 × 10^5 CFU/mL): 4 µg/mL
- MIC AB ([2]; value in brackets): 2.6 µM
- MIC PA ([3]; inoculum 5 × 10^5 CFU/mL): 32 µg/mL
- MIC PA ([3]; value in brackets): 20.7 µM
- %B (hydrophobicity: percentage of mobile phase B at the peak elution time) [4]: 67.9 %B
- % hemolysis of human erythrocytes (human erythrocytes): 100%

SMILES: CC[C@@H](C)[C@@H](NC(=O)[C@@H](CCCCN)NC(=O)[C@@H](CCCCN)NC(=O)[C@@H](Cc1ccccc1)NC(=O)[C@@H](CC(C)C)NC(=O)[C@@H](CCCCN)NC(=O)[C@H](N)CCCCN)C(=O)N1CCCC[C@H](C(N)=O)NC(=O)[C@@H](Cc2ccc(O)cc2)NC(=O)[C@@H](CCCNC(=N)N)NC(=O)[C@@H](CC(C)C)NC(=O)C1 [compound 8]
- MIC SA (S. aureus (ATCC 29213); inoculum 5 × 10^5 CFU/mL): > 64 µg/mL
- MIC SA (S. aureus (ATCC 29213); value in brackets): > 42.6 µM
- MIC EC (E. coli (ATCC 25922); inoculum 5 × 10^5 CFU/mL): > 64 µg/mL
- MIC EC (E. coli (ATCC 25922); value in brackets): > 42.6 µM
- MIC KP ([1]; inoculum 5 × 10^5 CFU/mL): > 64 µg/mL
- MIC KP ([1]; value in brackets): > 42.6 µM
- MIC AB ([2]; inoculum 5 × 10^5 CFU/mL): > 64 µg/mL
- MIC AB ([2]; value in brackets): > 42.6 µM
- MIC PA ([3]; inoculum 5 × 10^5 CFU/mL): > 64 µg/mL
- MIC PA ([3]; value in brackets): > 42.6 µM
- % hemolysis of human erythrocytes (human erythrocytes): 3%

SMILES: CCCCCCCCCCCC(=O)N[C@H](CCCCN)C(=O)N[C@H](CCCCN)C(=O)N[C@H](CC(C)C)C(=O)N[C@H](Cc1ccccc1)C(=O)N[C@H](CCCCN)C(=O)N[C@H](CCCCN)C(=O)N[C@@H](C(=O)N1CCCC[C@H](C(N)=O)NC(=O)[C@@H](Cc2ccc(O)cc2)NC(=O)[C@@H](CCCNC(=N)N)NC(=O)[C@@H](CC(C)C)NC(=O)C1)[C@H](C)CC [compound 14]
- MIC SA (S. aureus (ATCC 29213); inoculum 5 × 10^5 CFU/mL): 4 µg/mL
- MIC SA (S. aureus (ATCC 29213); value in brackets): 2.4 µM
- MIC EC (E. coli (ATCC 25922); inoculum 5 × 10^5 CFU/mL): 4 µg/mL
- MIC EC (E. coli (ATCC 25922); value in brackets): 2.4 µM
- MIC KP ([1]; inoculum 5 × 10^5 CFU/mL): 16 µg/mL
- MIC KP ([1]; value in brackets): 9.5 µM
- MIC AB ([2]; inoculum 5 × 10^5 CFU/mL): 4 µg/mL
- MIC AB ([2]; value in brackets): 2.4 µM
- MIC PA ([3]; inoculum 5 × 10^5 CFU/mL): 4 µg/mL
- MIC PA ([3]; value in brackets): 2.4 µM
- %B (hydrophobicity: percentage of mobile phase B at the peak elution time) [4]: 65.1 %B

SMILES: CCCCCCCCCCCCCC(=O)N[C@H](CCCCN)C(=O)N[C@H](CCCCN)C(=O)N[C@H](CC(C)C)C(=O)N[C@H](Cc1ccccc1)C(=O)N[C@H](CCCCN)C(=O)N[C@H](CCCCN)C(=O)N1CCCC[C@H](C(N)=O)NC(=O)[C@@H](Cc2ccc(O)cc2)NC(=O)[C@@H](CCCNC(=N)N)NC(=O)[C@@H](CC(C)C)NC(=O)[C@@H]([C@H](C)CC)NC(=O)C1 [compound 18]
- MIC SA (S. aureus (ATCC 29213); inoculum 5 × 10^5 CFU/mL): 4 µg/mL
- MIC SA (S. aureus (ATCC 29213); value in brackets): 2.3 µM
- MIC EC (E. coli (ATCC 25922); inoculum 5 × 10^5 CFU/mL): 8 µg/mL
- MIC EC (E. coli (ATCC 25922); value in brackets): 4.6 µM
- MIC KP ([1]; inoculum 5 × 10^5 CFU/mL): 32 µg/mL
- MIC KP ([1]; value in brackets): 18.7 µM
- MIC AB ([2]; inoculum 5 × 10^5 CFU/mL): 4 µg/mL
- MIC AB ([2]; value in brackets): 2.3 µM
- MIC PA ([3]; inoculum 5 × 10^5 CFU/mL): 16 µg/mL
- MIC PA ([3]; value in brackets): 9.3 µM
- %B (hydrophobicity: percentage of mobile phase B at the peak elution time) [4]: 78.5 %B

— publication PMC9404711 (Antibiotics, 2022)
